Read-outs that look alike come from different tables or passages of the source.
What was measured:
[1] = Identification and relative content of absorbed components of IPE in plasma (UPLC-MS); type: in vivo, SD rats; settings: oral IPE 13.5 g/kg, peak area normalization
Text: A total of 83 male SD rats, SPF grade, six weeks old, body mass (200 ± 10 g), were purchased from Hunan SJA Laboratory Animal Co., Ltd. (Haodan Science and Technology Park, No.99 Changchong Road, Longping High-tech Park, Furong District, Changsha City, China), Animal License No. SCXK (Hunan) 2019-0004. The animal experiments were approved by the Animal Ethics Committee of Guangxi University of Chinese Medicine (Approval No. DW20220220-117). After one week of adaptive feeding, the animals were randomly divided into eight groups of 10 animals according to weight stratification: normal control group (Con), natural bovine type II collagen model group (CII), wind-dampness cold bi-syndrome model group (WCM), wind-dampness heat bi-syndrome model group (WHM), wind-dampness cold bi-syndrome + Ipomoea pes-caprae group (WCM + IPE), wind-dampness heat bi-syndrome + Ipomoea pes-caprae group (WHM + IPE), wind-dampness cold bi-syndrome + Duhuo group (WCM + DH) (Duhuo formula granules), and wind-dampness heat bi-syndrome + Fangji group (WHM + FJ) (Fangji formula granules). Another three rats were randomly selected as the normal administration group (Con + IPE), and the absorbed components in plasma were studied in vivo. The oral dose of IPE was 13.5 g/kg, and the dosing volume was 20 mL/kg. The oral doses of Duhuo formula granules and Fangji formula granules were 9.0 g/kg, with a dosing volume of 20 mL/kg for each. The blank control group and each model group were administered an equal volume of distilled water by oral gavage. The administration was performed once daily for 28 consecutive days.
Rats were fasted for 12 h before administration but not deprived of water, then weighed and administered. A total of 0.2 mL of blood was collected from the orbit at 5 min, 30 min, 45 min, 1 h, 2 h, 4 h, 6 h, 8 h, and 12 h after the end of gavage administration and placed in a centrifuge tube with a preservative anticoagulant (1.5% EDTA aqueous solution, 1.5 mL). The samples were centrifuged at 4 °C for 10 min at 4000 rpm to separate the plasma. The supernatant was transferred to a new centrifuge tube and stored in a refrigerator at −80 °C for the detection of absorbed components in plasma and pharmacokinetics. In addition, after the end of the entire experimental cycle, blood was taken from the abdominal aorta of the rat. The blood samples were kept at room temperature for 2 h, then centrifuged at 4 °C at 3000 rpm for 10 min, and the upper serum was aspirated. The samples were stored at −80 °C in a low-temperature refrigerator for TNF-α, IL-6 detection, and metabolomics detection.
Ultra-high liquid chromatograph (model: ExionLC AC, manufacturer: SCIEX Corporation, USA) and QTOF mass spectrometer (model: X500R, manufacturer: SCIEX Corporation, USA), Waters ACQUITY UPLC HSS T3 C18 column (1.8 μm, 2.1 × 100 mm) was used as the mobile phase for the separation of 0.1% formic acid aqueous solution (A)-acetonitrile (B) as a mobile phase, gradient elution (0~30 min, 5%~95% B); volume flow rate of 0.4 mL/min; injection volume: 3 μL, column temperature: 40 °C. Ion source: dual-spray TurboV, positive and negative ion scanning, TOF MS scanning range of m/z 100~1500, positive/negative ion source voltage of […], ion source temperature: 600 °C, GS1: 55 psi, GS2: 55 psi, air curtain gas pressure: 35 psi, parent ion collision energy: ±10 V, de-cluster voltage (DP): ±80 V, daughter ion collision energy (CE): ±35 V.
Expressed as mean ± standard deviation ( x¯ ± s) and processed by GraphPad Prism 8.4.3 statistical software, statistical comparisons were evaluated by one-way ANOVA, followed by the Student–Newman–Keuls post hoc test. The difference was statistically significant with p < 0.05 and p < 0.01. […]

[2] = Pharmacokinetics of absorbed components of IPE in plasma; type: in vivo, SD rats; settings: component of orally given IPE, n = 6; for MRT last: read-out: MRT0~t
Text: (Haodan Science and Technology Park, No.99 Changchong Road, Longping High-tech Park, Furong District, Changsha City, China), Animal License No. SCXK (Hunan) 2019-0004. The animal experiments were approved by the Animal Ethics Committee of Guangxi University of Chinese Medicine (Approval No. DW20220220-117). After one week of adaptive feeding, the animals were randomly divided into eight groups of 10 animals according to weight stratification: normal control group (Con), natural bovine type II collagen model group (CII), wind-dampness cold bi-syndrome model group (WCM), wind-dampness heat bi-syndrome model group (WHM), wind-dampness cold bi-syndrome + Ipomoea […] group ([…]), wind-dampness heat bi-syndrome + Ipomoea […] group ([…]), wind-dampness cold bi-syndrome + Duhuo group (WCM + DH) (Duhuo formula granules), and wind-dampness heat bi-syndrome + Fangji group (WHM + FJ) (Fangji formula granules). […] The oral dose of IPE was 13.5 g/kg, and the dosing volume was 20 mL/kg. The oral doses of Duhuo formula granules and Fangji formula granules were 9.0 g/kg, with a dosing volume of 20 mL/kg for each. The blank control group and each model group were administered an equal volume of distilled water by oral gavage. […] The supernatant was transferred to a new centrifuge tube and stored in a refrigerator at -80 °C for the detection of absorbed components in plasma and pharmacokinetics. In addition, after the end of the entire experimental cycle, blood was taken from the abdominal aorta of the rat. The blood samples were kept at room temperature for 2 h, then centrifuged at 4 °C at 3000 rpm for 10 min, and the upper serum was aspirated. The samples were stored at -80 °C in a low-temperature refrigerator for TNF-α, IL-6 detection, and metabolomics detection. In order to further elaborate on the in vivo pharmacokinetic characteristics of IPE, this study selected caffeic acid, protocatechuic acid, and ferulic acid as the research objects to explore their in vivo absorption and metabolism characteristics. In addition, syringic acid was chosen as the internal standard. […] Use A as 0.1% acetic acid aqueous solution (A) acetonitrile (B) as the mobile phase, with gradient elution (0-6 min, 5-20% B; 6-10 min, 20-40% B), a volume flow of 0.4 mL/min, a column temperature of 40 °C, and an injection volume of 3 μL. Ion source: electrospray ion source (ESI), negative ion mode collection, simultaneous measurement by multiple reaction monitoring (MRM) mode.

RA-FLS = test system: RA-FLS; parameters: method as in PMID 28463788; settings: by blocking phosphorylation of IκB and IκB kinases; cited from earlier work
LTB4 = test system: LTB4; parameters: method as in PMID 27826169; settings: cited from earlier work
JAK/STAT pathway = settings: modulating CRP, RF, TNF-α, TGF-β levels; cited from earlier work
[3] = test system: NF-κB and Akt/mTOR signaling pathways; parameters: method as in PMID 32510258; settings: cited from earlier work
[4] = test system: tyrosine kinases on fibroblast-like synoviocytes (FLS); settings: cited from earlier work
[5] = male, SD, rat, plasma, po, 13.5 g/kg, Con + IPE group
[6] = male, SD, rat, plasma, po, 13.5 g/kg, Con + IPE group, read-out: Tmax
[7] = male, SD, rat, plasma, po, 13.5 g/kg, WCM + IPE group
[8] = male, SD, rat, plasma, po, 13.5 g/kg, WCM + IPE group, read-out: Tmax
[9] = male, SD, rat, plasma, po, 13.5 g/kg, WHM + IPE group
[10] = male, SD, rat, plasma, po, 13.5 g/kg, WHM + IPE group, read-out: Tmax

| Relative Content of absorbed component in plasma ([1]; Con + IPE group (normal rats)) [%] | Relative Content of absorbed component in plasma ([1]; WCM + IPE group) [%] | Relative Content of absorbed component in plasma ([1]; WHM + IPE group) [%] | AUC(0-t) [2, 5] [ng·h/mL] | Cmax [2, 5] [ng/mL] | half-life [2, 5] [h] | MRT last [2, 5] [h] | Tmax [2, 6] [h] | AUC(0-t) [2, 7] [ng·h/mL] | Cmax [2, 7] [ng/mL] | half-life [2, 7] [h] | MRT last [2, 7] [h] | AUC(0-t) [2, 9] [ng·h/mL] | Cmax [2, 9] [ng/mL] | half-life [2, 9] [h] | MRT last [2, 9] [h] | Tmax [2, 10] [h] | Structure (SMILES) | further results |
| --- | --- | --- | --- | --- | --- | --- | --- | --- | --- | --- | --- | --- | --- | --- | --- | --- | --- | --- |
| 33.04 | 30.2 | 34.24 | 2080 ± 349 | 703 ± 190 | 4.51 ± 3.03 | 4.18 ± 1.82 | 0.85 ± 0.22 | 1130 ± 163 | 342 ± 123 | 2.82 ± 1.07 | 3.32 ± 0.35 | 2300 ± 410 | 709 ± 194 | 3.82 ± 2.55 | 4.53 ± 1.34 | 0.93 ± 0.12 | O=C(O)/C=C/c1ccc(O)c(O)c1 [Caffeic acid] | Tmax [2, 8]: 0.62 ± 0.14 h; IL-6 and TNF-α, inflammatory response in RA-FLS (RA-FLS): inhibits IL-6 and TNF-α |
|  | 1.77 |  |  |  |  |  |  |  |  |  |  |  |  |  |  |  | O=c1ccc2ccccc2o1 [Coumarin] |  |
| 0.39 | 0.5 | 0.58 |  |  |  |  |  |  |  |  |  |  |  |  |  |  | O=c1ccc2cc(O)c(O)cc2o1 [Esculetine] | LTB4 levels (LTB4): decreasing LTB4 levels |
| 17.23 | 20.09 | 17.71 | 60.6 ± 27.3 | 35.8 ± 10.9 | 1.51 ± 0.51 | 1.3 ± 0.28 | 0.45 ± 0.1 | 34.9 ± 22.6 | 26.1 ± 11.6 | 1.02 ± 0.46 | 1.05 ± 0.35 | 104 ± 41.2 | 38.8 ± 16.2 | 1.31 ± 0.32 | 2.27 ± 0.42 | 0.7 ± 0.27 | COc1cc(/C=C/C(=O)O)ccc1O [Ferulic acid] | Tmax ([2]; WCM + IPE group): 0.33 ± 0.12 h; JAK/STAT pathway-mediated RA (JAK/STAT pathway): inhibits JAK/STAT pathway-mediated RA |
| 2.7 | 7.8 | 5 |  |  |  |  |  |  |  |  |  |  |  |  |  |  | COc1cc2oc(=O)ccc2cc1O [Isoscopoletin] |  |
| 1.57 | 2.45 | 2.02 |  |  |  |  |  |  |  |  |  |  |  |  |  |  | COC(=O)/C=C/c1ccc(O)c(O)c1 [Methyl caffeate acid] |  |
| 5.83 | 4.71 | 5.56 |  |  |  |  |  |  |  |  |  |  |  |  |  |  | COc1cc2ccc(=O)oc2cc1O [Scopoletin] | NF-κB signaling in fibroblast-like synoviocytes [4]: block NF-κB signaling |
| 38.2 | 29.65 | 34.04 |  |  |  |  |  |  |  |  |  |  |  |  |  |  | O=C(O)c1ccc(O)cc1 [p-Hydroxybenzoic acid] |  |

| Structure (SMILES) | Relative Content of absorbed component in plasma ([1]; Con + IPE group (normal rats)) [%] | Relative Content of absorbed component in plasma ([1]; WCM + IPE group) [%] | Relative Content of absorbed component in plasma ([1]; WHM + IPE group) [%] | AUC(0-t) [2, 5] [ng·h/mL] | Cmax [2, 5] [ng/mL] | half-life [2, 5] [h] | MRT last [2, 5] [h] | Tmax [2, 6] [h] | AUC(0-t) [2, 7] [ng·h/mL] | Cmax [2, 7] [ng/mL] | half-life [2, 7] [h] | MRT last [2, 7] [h] | AUC(0-t) [2, 9] [ng·h/mL] | Cmax [2, 9] [ng/mL] | half-life [2, 9] [h] | MRT last [2, 9] [h] | Tmax [2, 10] [h] | further results |
| --- | --- | --- | --- | --- | --- | --- | --- | --- | --- | --- | --- | --- | --- | --- | --- | --- | --- | --- |
| O=C(O)c1ccc(O)c(O)c1 [Protocatechuic acid] | 1.04 | 1.14 | 0.84 | 504 ± 177 | 269 ± 90.2 | 1.93 ± 1.01 | 1.9 ± 0.42 | 0.66 ± 0.25 | 194 ± 100 | 121 ± 77.4 | 1.46 ± 0.32 | 1.59 ± 0.38 | 307 ± 98.3 | 145 ± 53.2 | 1.25 ± 0.36 | 1.83 ± 0.24 | 0.62 ± 0.14 | Tmax [2, 8]: 0.41 ± 0.12 h; secretion of MMP-3, MMP-13, TNF-α, IL-1β, and IL-6 [3]: inhibits the secretion |
| O=Cc1ccc(O)c(O)c1 [Protocatechuic aldehyde] |  | 1.68 |  |  |  |  |  |  |  |  |  |  |  |  |  |  |  |  |
